The values below come from publication PMC5015098, “Purification, characterization, cytotoxicity and anticancer activities of L-asparaginase, anti-colon cancer protein, from the newly isolated alkaliphilic Streptomyces fradiae NEAE-82” (Scientific Reports, 2016).

The subject of the experiment is T1, L-asparaginase.
T1 construct: gene EC 3.5.1.1
To be noted: 0.05 M Tris-HCl pH 8.6, 37 °C, 30 min (standard assay).

As to `NC(=O)C[C@H](N)C(=O)O` [L-asparagine], the Km came out at 10.1 mM.
